In US11267809B2, “BAF complex modulating compounds and methods of using the same” (THE BOARD OF TRUSTEES OF THE LELAND STANFORD JUNIOR …, priority 2017, dated 2022):

Columns and labels:
[1] = system: HCT116 cells; test: Synergy viability assay (CellTitre blue, 5 days), HCT116 ARID1A(+/+); assay type: cell-based, human
Protocol: To assess drug synergy, the Chou-Talalay method was employed to provide a mechanism-independent method to quantify the synergism of drug interactions. This method combines elements of the Scatchard, Michaelis-menten, Hill, and Henderson-Hasslebalch equations through the law of mass-action^31,32 to generate a quantifiable assessment of synergy. Molecules were tested both independently and then in 25 different combinations in HCT116 cells for 5 days as described above. To determine a combination index (CI), median-effect equations of the two respective molecules were determined from their respective dose responses. The median-effect equation was used to calculate a median-effect dose, and (Dx)ATRi,BAFi values which correspond for the respective doses of the BAFi and ATRi compounds and correlate with a given percentage of cells affected by the individual treatments. Normalized index values (IATRi, IBAFi), and the combination index are a ratio between the treatment dose, and the Dx for a given fraction of affected cells. Combination indices less than 0.9 are considered synergistic, while values ranging from 0.9 to 1.1 are additive, and CIs above 1.1 are antagonistic.
Viability assays were performed in 384-well plates. Cells were plated at 500 cells/well. Each drug was administered in 5-doses with 4 replicates per plate, and each 5×5 drug combination was administered with 8 replicates per plate, 24 hours after seeding. All error bars represent 4 or 8 technical replicates averaged over 3 independent experiments. Media containing fresh drug was replaced every 48 hours. After 5 days, cellular viability was measured using CellTitre blue, as described by the manufacturer.

[2] = system: HCT116 cells infected with shRNA lentivirus targeting ARID2; test: Synergy viability assay, HCT116 with shARID2 knockdown; assay type: cell-based, human; settings: with VE-821, 5 days
Text: SMARCA4, the primary target of our original screen, is present in both human BAF and PBAF complexes in cancer^12. PBAF complexes differ from BAF complexes by incorporation of specific subunits. Specifically, PBAF complexes contain ARID2 (as opposed to ARID1A/B), PHF10 (BAF45a) (as opposed to […] (BAF45d)), PBRM1, and lack the BAF-specific subunit SS18. PBAF specific subunits are also frequently mutated in cancer, specifically renal clear cell carcinomas and cholangiocarcinomas^33-36. To assess whether the lead compound is targeting BAF, PBAF complexes, or both, we constitutively knocked down ARID1A or ARID2 by lentiviral transduction of HCT116 cells and compared the BAFi/ATRi synergy to the wild-type (ARID1A+/+). […] Further, upon knockdown of ARID1A or ARID2 (FIG. 3b), the synergistic effect observed between Baficillin1 and VE-821 was ablated upon loss of ARID1A (FIG. 3e) (CIshARID1A=1.48±0.14), but not loss of shARID2 (CIshARID2=0.42±0.04) (FIG. 3c-e).
Viability assays were performed in 384-well plates. Cells were plated at 500 cells/well. Each drug was administered in 5-doses with 4 replicates per plate, and each 5×5 drug combination was administered with 8 replicates per plate, 24 hours after seeding. […] After 5 days, cellular viability was measured using CellTitre blue, as described by the manufacturer. […]

[3] = system: mESCs; test: Toxicity in mouse embryonic stem cells (cell cycle arrest); assay type: cell-based
Protocol: From our initial Bmi1 screen, we chose 8 representative compounds to compare to the lead candidate which were either commercially available, or comprised of the same oxadiazacyclodecone 12-member macrocyclic stereoisomer backbone as Baficillin1. […] To examine a structure-activity-relationship of the compounds, HCT116 cells were then treated with increasing doses of VE-821 (1 uM-30 uM) and increasing doses of the putative inhibitors (1 uM-30 uM), both independently and with all possible combinations followed by quantification of synergy (FIG. 4c-h).
FIG. 4: Structure Activity Relationship of Putative BAF Inhibitors. […]
For hour-by-hour analysis, cells were collected, rinsed with PBS, and vortexed while adding 1mL ice cold 70% ethanol. […] Individual cells were gated based on forward and side scatter, auto fluorescent cells were omitted, and remaining cells were then analyzed for propidium iodide levels. To determine the percent of cells in each phase, DNA content histograms histograms were analyzed using R-package “mixtools” EM algorithm for mixtures of univariate normals. The areas of each mixed normal distribution were calculated to represent the total number of cells in each phase of the cell cycle. […] ESCs were incubated with BrdU for 1 h and the percent of cells in G2/M, stained with 7-AAD and analyzed on a BD FACScan.

SMILES: CO[C@H]1CN(C)C(=O)c2cc(NC(=O)NC(C)C)ccc2OC[C@H](C)N(Cc2ccc(-c3ccccn3)cc2)C[C@@H]1C [Baficillin1]
- dose reduction index ([1]; combination of VE-821 and Baficillin1, higher concentrations): > 100 fold
- dose reduction index ([1]; combination of VE-821 and Baficillin1, low concentrations): over 10 fold
- average combination index (CI) ([1]; with VE-821 (1.25-20 uM each, 25 combinations), 5 days, Chou-Talalay): 0.53±0.05
- combination index (CI shARID2) [2]: 0.42±0.04
- toxicity in mESCs [3]: largely non-toxic
